# Test results reported in publication PMC11648675 (Cell, 2024).
# Where a SMILES comes first, the peptide text is derived from it. The star is where a group is joined. CH2Cl = ClC*
# Experiments:
# EMT6 cells = experiment: cell death of EMT6 cells in vitro; type: cell-based, mouse; details: for cell death at concentration used for vaccination: 60 μM; for LDH release: WT EMT6 cells; for potency at killing WT EMT6 cells: cell-titer Glo assay, in vitro
# Human GSDMD [1] = molecular target: T1, Human GSDMD (Homo sapiens, UniProt P57764); experiment: time-resolved fluorogenic; type: biochemical; details: read-out: EC50 of liposome leakage; human GSDMD 0.3 μM, Tb3+/DPA fluorescence
# T1 sequence (P57764 whole entry): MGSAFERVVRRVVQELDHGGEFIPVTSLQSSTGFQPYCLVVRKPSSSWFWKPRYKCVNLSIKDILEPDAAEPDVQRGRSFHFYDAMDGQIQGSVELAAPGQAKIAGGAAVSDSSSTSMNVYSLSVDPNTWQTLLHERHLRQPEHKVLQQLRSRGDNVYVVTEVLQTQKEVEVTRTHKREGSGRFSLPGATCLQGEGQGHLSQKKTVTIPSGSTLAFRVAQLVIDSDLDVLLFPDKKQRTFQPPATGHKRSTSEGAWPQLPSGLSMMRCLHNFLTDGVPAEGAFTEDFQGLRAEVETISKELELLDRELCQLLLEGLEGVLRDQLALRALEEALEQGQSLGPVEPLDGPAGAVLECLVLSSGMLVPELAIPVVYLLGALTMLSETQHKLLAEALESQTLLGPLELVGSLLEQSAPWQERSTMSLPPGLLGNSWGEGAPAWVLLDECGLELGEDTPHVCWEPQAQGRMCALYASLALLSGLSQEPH
# Human GSDMD [2] = molecular target: T1, Human GSDMD; experiment: microscale thermophoresis; type: binding; details: read-out: dissociation constant (KD) by MST; Alexa 647-labeled GSDMD
# THP-1 cells = experiment: cell death of WT THP-1 cells by PI uptake; type: cell-based, human
# [3] = tested on: GSDMD knockout (KO) THP-1 cells; experiment: cell death of GSDMD KO THP-1 cells by PI uptake; type: cell-based, human; details: 5 or 20 μM
# [4] = tested on: GSDMD KO THP-1 cells reconstituted with WT or D275A GSDMD; experiment: PI uptake in GSDMD KO THP-1 cells reconstituted with WT or D275A GSDMD; type: cell-based, human; details: 5 or 20 μM, 1, 2 and 4 h
# NLRP3 = NLRP3 activation in LPS-primed THP-1 cells; type: cell-based, human; details: treatment after LPS priming
# [5] = tested on: human peripheral blood mononuclear cells (PBMCs); experiment: cell death of human PBMCs; type: cell-based
# [6] = tested on: primary mouse bone-marrow-derived macrophages (BMDMs); experiment: cell death of primary mouse BMDMs; type: cell-based; details: WT and GSDMD KO primary BMDMs
# [7] = tested on: immortalized mouse BMDMs (iBMDMs); experiment: cell death of immortalized mouse BMDMs; type: cell-based; details: WT iBMDMs, 5 and 20 μM; not affected by caspase-1/11 ablation
# recombinant caspase-1 = recombinant caspase-1 (Homo sapiens, UniProt P29466); experiment: Caspase-1 activity assay; type: biochemical; details: in vitro, DMB 10 μM, Z-YVAD-AFC substrate
# Sequence of recombinant caspase-1 (P29466 120-297 limits assumed, species assumed): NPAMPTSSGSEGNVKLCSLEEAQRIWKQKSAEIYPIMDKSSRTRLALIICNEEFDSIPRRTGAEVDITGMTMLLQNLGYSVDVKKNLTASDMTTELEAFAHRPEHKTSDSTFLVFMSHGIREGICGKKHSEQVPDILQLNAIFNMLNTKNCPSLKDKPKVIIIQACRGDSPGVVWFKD
# Sequence of recombinant caspase-1 (P29466 317-404 limits assumed, species assumed): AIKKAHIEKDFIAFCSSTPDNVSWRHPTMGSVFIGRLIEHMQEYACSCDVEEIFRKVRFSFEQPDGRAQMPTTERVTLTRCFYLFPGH
# mouse GSDMD = experiment: liposome leakage assay with mouse GSDMD; type: biochemical
# [8] = tested on: human GSDMA, GSDMB, GSDMC, GSDME; experiment: liposome leakage assay with other human gasdermins; type: biochemical; details: gasdermins 0.3 μM
# C38A GSDMD = C38A GSDMD (Homo sapiens, UniProt P57764, C38A); experiment: liposome leakage assay with C38A GSDMD; type: biochemical; details: read-out: EC50 for activating GSDMD pore formation
# Sequence of C38A GSDMD (P57764 whole entry C38A): as the sequence (P57764 whole entry) above, with C38A counted along it
# C191A GSDMD = C191A GSDMD (Homo sapiens, UniProt P57764, C191A); experiment: liposome leakage assay with C191A GSDMD; type: biochemical
# Sequence of C191A GSDMD (P57764 whole entry C191A): as the sequence (P57764 whole entry) above, with C191A counted along it
# [9] = tested on: full-length GSDMD in HEK293T cells; experiment: activation of full-length GSDMD in transfected HEK293T cells; type: cell-based, human
# [10] = molecular target: mCherry-tagged full-length GSDMD (Homo sapiens, UniProt P57764); experiment: membrane localization of mCherry-tagged full-length GSDMD in HEK293T cells; type: cell-based; details: increasing concentrations of DMB
# Sequence of mCherry-tagged full-length GSDMD (P57764 whole entry): as the sequence (P57764 whole entry) above
# [11] = molecular target: GSDMD (YFP at N terminus, RLuc at C terminus) (Homo sapiens, UniProt P57764); experiment: BRET assay of GSDMD NT-CT distance; type: cell-based
# Sequence of GSDMD (YFP at N terminus, RLuc at C terminus) (P57764 whole entry): as above
# WT EMT6 tumors = experiment: orthotopic WT EMT6 tumors in BALB/c mice; type: in vivo, mouse
# [12] = tested on: Gsdmd−/− and Gsdmd−/−Gsdme−/− EMT6 tumors; experiment: orthotopic gasdermin-KO EMT6 tumors in BALB/c mice; type: in vivo, mouse; details: 10 mg/kg weekly
# CT26 colorectal cancer = experiment: subcutaneous CT26 tumors in syngeneic mice; type: in vivo, mouse; details: 10 mg/kg
# [13] = tested on: KP lung adenocarcinoma tumors; experiment: subcutaneous KP tumors in WT and Gsdmd−/− C57BL/6 mice; type: in vivo, mouse
# EMT6 tumors in NSG mice = experiment: EMT6 tumors in NSG mice; type: in vivo, mouse; details: NSG mice lacking functional lymphocytes
# EMT6 tumor challenge = experiment: vaccination with drug-treated EMT6 cells and EMT6 challenge; type: in vivo, mouse; details: for mice remaining tumor-free after challenge: immunization with drug-treated EMT6 cells, challenge 8 days later
# [14] = tested on: B16 cells that expressed GFP; experiment: subcutaneous B16-GFP tumors in syngeneic mice; type: in vivo, mouse; details: 10 mg/kg every 3 days x6
# 4T1E tumors = experiment: orthotopic 4T1E tumors in BALB/c mice, DMB and anti-PD-1; type: in vivo, mouse; details: DMB 1 mg/kg weekly; anti-PD-1 every 2 days
# [15] = toxicity readouts in treated tumor-bearing mice; type: in vivo, mouse
# [16] = tested on: Human GSDMD-GFP-expressing B16 cells; experiment: pyroptosis of B16-GSDMD-GFP cells in vitro by PI uptake; type: cell-based, mouse; details: 10 μM DMB
# [17] = tested on: B16 cells expressing human GSDMD-GFP
# [18] = 10 mg/kg i.p. every 3 days x6 from day 5
smiles,measurement,setting,value
CC(=O)N[C@@H](Cc1ccccc1)C(=O)N[C@@H](CC(C)C)C(=O)N[C@H](C(=O)N[C@@H](CC(=O)O)C(=O)CCl)[C@@H](C)O [AC-FLTD-CMK] (Ac-FLTD-CH2Cl),effect of caspase inhibition on DMB-induced SYTOX Green uptake,EMT6 cells; EMT6 cells,did not affect DMB-induced pyroptosis
"CC(C)(C)Nc1nc2cc(Cl)c(Cl)cc2nc1S(C)(=O)=O [DMB, 6,7-dichloro-2-methylsulfonyl-3-N-tert-butylaminoquinoxaline]",EC50,Human GSDMD [1],700 nM
same,Kd,Human GSDMD [2],1100 ± 400 nM
same,cell death by PI uptake,"THP-1 cells; WT THP-1 cells, 5 or 20 μM",induced significant cell death within 2 h
same,EC50,"THP-1 cells; read-out: EC50 of DMB-mediated cell death, WT THP-1, PI positivity at 4 h",4800 ± 400 nM
same,cell death by PI uptake,[3],minimally
same,"cell death by PI uptake, WT vs D275A GSDMD rescue",[4],comparable cell death
same,"NLRP3 activation (ASC speck formation, IL-1β release)",NLRP3,did not significantly activate NLRP3
same,"induction of PI positivity, LDH release, ATP release",[5],robustly induced
same,GSDMD dependence of cell death induction,[6],depended on GSDMD
same,cell death,[7],triggered cell death
same,effect on recombinant caspase-1 activity,recombinant caspase-1,neither inhibited nor activated
same,fold reduced efficacy on mouse GSDMD vs human GSDMD,mouse GSDMD,~ 5 fold
same,activation of other human gasdermins,[8],activated human GSDMD but not other human gasdermins
same,EC50,C38A GSDMD,~900 nM
same,activation of GSDMD pore formation,C191A GSDMD,not activated
same,activation of C191R and C191F full-length GSDMD mutants,[9],could not be activated
same,membrane localization of mCherry-tagged full-length GSDMD,[10],up to 88%
same,BRET signal compared with DMSO control,[11],decreased the BRET signal
same,ATP release into supernatants,EMT6 cells; EMT6 cells,peaked 2 and 3 h
same,cell death at concentration used for vaccination,"EMT6 cells; EMT6 cells, 5 h",60–70%
same,LDH release,EMT6 cells,beginning within an hour of treatment
same,potency at killing WT EMT6 cells,EMT6 cells,similarly potent
same,tumor growth,"WT EMT6 tumors; 10 mg/kg weekly for 2 weeks, WT EMT6",significantly suppressed
same,GzmB/PFN expression and stimulated IFN-γ/TNF-α production of CD8+ and NK TILs,"WT EMT6 tumors; 10 mg/kg weekly, WT EMT6 tumors",significantly increased
same,tumor growth,[12]; Gsdmd−/− EMT6,not significantly reduced
same,tumor growth,[12]; Gsdmd−/−Gsdme−/− EMT6,not significantly reduced
same,tumor growth,CT26 colorectal cancer,A similar reduction in tumor growth
same,tumor growth,[13],similarly inhibited
same,tumor growth,EMT6 tumors in NSG mice,did not suppress the growth
same,"tumor size, times smaller than in mice immunized with MMC-treated cells",EMT6 tumor challenge; immunization with DMB-treated EMT6 cells,6 times
same,mice remaining tumor-free after challenge,EMT6 tumor challenge,Three of 12
same,tumor growth,[14],no significant effect
same,tumor growth / tumor volume vs vehicle,4T1E tumors,does not inhibit tumor growth on its own
same,mouse body weight,"[15]; B16 tumor-bearing mice, 10 mg/kg every 3 days x6",no effect
same,blood counts,"[15]; EMT6-bearing mice, 10 mg/kg",normal blood counts
same,sensitivity to DMB-induced pyroptosis by PI uptake,[16],became sensitive to DMB-induced pyroptosis
same,surviving mice cured with no palpable tumor,[17]; [18],3
same,tumor growth,[17]; [18],strongly inhibited tumor growth
same,mice surviving to the end of the experiment,"[17]; 10 mg/kg i.p. every 3 days x6 from day 5, clones 9 and 10",5 of 16
same,"T cells per tumor area, DMB vs. vehicle",[17]; CD3+ CD8+ immunofluorescence,8.3 fold
same,"DCs per tumor area, DMB vs. vehicle",[17]; MHCII+ CD11c+ immunofluorescence,25.2 fold
same,"survival of mice bearing smaller tumors, delayed treatment","[17]; treatment from day 10, every 3 days x6",two of the four
"CO[C@@]12[C@H](COC(N)=O)C3=C(C(=O)C(C)=C(N)C3=O)N1C[C@@H]1N[C@@H]12 [MMC, mitomycin C]",ATP release into supernatants,EMT6 cells; EMT6 cells,did not trigger ATP release
same,cell death at concentration used for vaccination,"EMT6 cells; EMT6 cells, 20 h",60–70%
same,LDH release,EMT6 cells,much less and delayed LDH release
same,potency at killing WT EMT6 cells,EMT6 cells,similarly potent
same,mice remaining tumor-free after challenge,EMT6 tumor challenge,tumors grew in all the mice
"CCN(CC)C(=S)SSC(=S)N(CC)CC [disulfiram, reference compound]",effect of pretreatment on DMB-induced cell death,[5]; pretreatment before DMB,strongly suppressed cell death
